Laboratory results: patent US8716284B2, “Adamantyl diamide derivatives and uses of same” (H. Lundbeck A/S, priority 2008, dated 2014)

Legend:
[1] = molecular target: T1, rat metabotropic glutamate receptor 5 (mGluR5) (Rattus norvegicus, UniProt P31424); assay: Calcium mobilization assay (FLIPR) for negative or positive allosteric activity, HEK 293 cells; format: cell-based; details: HEK293, negative allosteric modulation, inhibition of EC80 glutamate response; read-out: FLIPR maximum inhibition
T1 construct: expressed in transfected cells; host or cells: HEK 293
T1 sequence (P31424 21-1171 isoform P31424-2 limits assumed): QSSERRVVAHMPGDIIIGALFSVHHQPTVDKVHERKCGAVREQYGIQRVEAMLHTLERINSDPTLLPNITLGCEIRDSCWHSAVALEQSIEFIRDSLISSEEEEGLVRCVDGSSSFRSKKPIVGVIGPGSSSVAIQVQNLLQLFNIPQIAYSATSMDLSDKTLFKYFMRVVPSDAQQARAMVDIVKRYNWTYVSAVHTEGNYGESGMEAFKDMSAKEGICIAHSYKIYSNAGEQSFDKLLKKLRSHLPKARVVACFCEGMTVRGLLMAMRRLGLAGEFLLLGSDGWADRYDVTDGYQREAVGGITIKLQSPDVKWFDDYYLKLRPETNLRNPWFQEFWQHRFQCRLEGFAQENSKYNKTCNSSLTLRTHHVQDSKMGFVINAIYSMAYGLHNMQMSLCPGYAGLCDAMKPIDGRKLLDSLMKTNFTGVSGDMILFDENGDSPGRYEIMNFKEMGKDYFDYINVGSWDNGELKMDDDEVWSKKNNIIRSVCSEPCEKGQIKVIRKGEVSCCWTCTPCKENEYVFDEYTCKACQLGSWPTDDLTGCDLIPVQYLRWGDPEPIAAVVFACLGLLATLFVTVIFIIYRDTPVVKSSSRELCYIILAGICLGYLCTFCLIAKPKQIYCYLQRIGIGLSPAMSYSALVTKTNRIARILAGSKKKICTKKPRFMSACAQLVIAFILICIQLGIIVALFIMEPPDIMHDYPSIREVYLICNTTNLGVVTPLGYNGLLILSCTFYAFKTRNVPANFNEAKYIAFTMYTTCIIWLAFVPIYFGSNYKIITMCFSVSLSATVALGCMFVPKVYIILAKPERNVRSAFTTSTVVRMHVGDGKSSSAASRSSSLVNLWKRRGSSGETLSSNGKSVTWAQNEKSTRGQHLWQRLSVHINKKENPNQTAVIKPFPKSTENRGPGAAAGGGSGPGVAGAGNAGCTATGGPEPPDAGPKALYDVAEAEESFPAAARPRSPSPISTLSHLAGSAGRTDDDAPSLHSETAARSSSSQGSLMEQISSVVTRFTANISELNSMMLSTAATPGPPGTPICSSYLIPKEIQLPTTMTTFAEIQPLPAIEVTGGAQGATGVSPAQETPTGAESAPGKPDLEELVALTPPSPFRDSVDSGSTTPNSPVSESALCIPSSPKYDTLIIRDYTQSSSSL
Procedure, shortened: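 Peak Fluo-4 calcium signal over 3 min at room temperature, minus basal, fitted by Hill equation, in stable rat mGluR5 HEK 293 cells (HBSS/HEPES pH 7.4, BSA, probenecid). Inhibition scored against EC80 glutamate, potentiation against EC20 glutamate, glutamate given with compound.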

[2] = molecular target: mGluR5 (Homo sapiens, UniProt P41594); assay: Radioligand binding assay, [3H]MPEP filtration binding to membrane homogenates; details: 5 nM [3H]MPEP; Ki calculated from IC50 by Cheng-Prusoff
mGluR5, sequence (P41594 21-1212): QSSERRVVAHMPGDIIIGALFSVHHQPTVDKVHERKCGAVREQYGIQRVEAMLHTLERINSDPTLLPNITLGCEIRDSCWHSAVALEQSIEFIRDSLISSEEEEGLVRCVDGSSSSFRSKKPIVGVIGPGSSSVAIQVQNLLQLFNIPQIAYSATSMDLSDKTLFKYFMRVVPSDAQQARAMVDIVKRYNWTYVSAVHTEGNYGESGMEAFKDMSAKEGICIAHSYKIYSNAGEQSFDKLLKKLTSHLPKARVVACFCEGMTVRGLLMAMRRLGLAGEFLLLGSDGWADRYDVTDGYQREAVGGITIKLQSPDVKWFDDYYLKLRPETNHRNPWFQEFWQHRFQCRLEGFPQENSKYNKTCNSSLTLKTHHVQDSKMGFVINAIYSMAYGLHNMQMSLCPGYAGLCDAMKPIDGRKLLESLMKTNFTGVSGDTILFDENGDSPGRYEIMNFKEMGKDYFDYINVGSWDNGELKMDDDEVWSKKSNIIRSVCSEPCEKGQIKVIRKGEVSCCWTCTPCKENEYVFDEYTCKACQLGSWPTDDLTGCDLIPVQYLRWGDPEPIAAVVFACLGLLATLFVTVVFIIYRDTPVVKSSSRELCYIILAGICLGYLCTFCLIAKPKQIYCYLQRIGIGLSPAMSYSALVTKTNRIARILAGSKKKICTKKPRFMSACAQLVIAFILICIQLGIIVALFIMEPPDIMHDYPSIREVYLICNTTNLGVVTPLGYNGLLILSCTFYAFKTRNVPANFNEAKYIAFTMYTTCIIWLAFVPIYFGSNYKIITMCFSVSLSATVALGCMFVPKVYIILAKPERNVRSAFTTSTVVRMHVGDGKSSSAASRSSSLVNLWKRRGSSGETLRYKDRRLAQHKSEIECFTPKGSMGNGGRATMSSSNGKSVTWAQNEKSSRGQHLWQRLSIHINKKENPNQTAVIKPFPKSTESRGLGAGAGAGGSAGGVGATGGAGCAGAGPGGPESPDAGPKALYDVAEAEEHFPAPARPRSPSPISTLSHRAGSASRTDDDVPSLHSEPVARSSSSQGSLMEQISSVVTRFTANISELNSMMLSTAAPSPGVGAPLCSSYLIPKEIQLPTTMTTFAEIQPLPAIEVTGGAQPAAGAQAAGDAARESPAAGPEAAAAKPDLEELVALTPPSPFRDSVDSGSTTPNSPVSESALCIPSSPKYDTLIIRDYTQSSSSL
Procedure: Binding assays were performed as described in [J. A. O'Brien et al. Mol. Pharmacol., 2003, 64, 731-740] with slight modifications. Briefly, after thawing, the membrane homogenates were resuspended in 50 mM Tris-HCl, 0.9% NaCl binding buffer at pH 7.4 to a final assay concentration of 40 μg protein/well for [^3H]methoxy-5-(2-pyridinylethynyl)pyridine ([^3H] MPEP) (American Radiolabeled Chemicals, Inc., St. Louis, Mo.) filtration binding. Incubations included 5 nM [^3H] MPEP, membranes and either buffer or varying concentrations of compound. Samples were incubated for 60 min at room temperature with shaking. Non-specific binding was defined with 10 μM MPEP. After incubation, samples were filtered over a GF/C filter (presoaked in 0.25% polyethyleneimine (PEI)) and then washed 4 times using a Tomtec® Harvester 96® Mach III cell harvester (Tomtec, Hamden, Conn.) with 0.5 mL ice-cold 50 mM Tris-HCl (pH 7.4).
IC50 values were derived from the inhibition curve and Ki values were calculated according to the Cheng and Prusoff equation of Ki=IC50/(1+[L]/Kd) described in [Y. Cheng and W. H. Prusoff Biochem. Pharmacol. 1973, 22, 3099-3108] where [L] is the concentration of radioligand and Kd is its dissociation constant at the receptor, derived from the saturation isotherm.

[3] = system: adult, male CD1 mice; assay: Mouse marble burying (mMB) assay, anxiolytic effect; format: in vivo; details: SC injection, one-way ANOVA with Dunnett's test or t-test, read-out: Statistically significant Active Dose
Procedure: Examples 1, 2 and 58 were evaluated in vivo for anxiolytic effects using (1) mouse marble burying (mMB) methods similar to those described in [K. Njung'e, K. and S. L. Handley, Pharmacology, Biochemistry and Behavior, 1991, 38, 63-67] and (2) a modified Geller-Seifter conflict test described in [N. A. Moore et al. Behavioural Pharmacology. 1994, 5, 196-202].
More specifically for the mMB testing, adult, male CD1 mice (Charles River Laboratories (Kingston, N.Y.)), weighing 25 to 30 g, were used. All animals were group-housed in a standard colony room with a 12:12 light/dark cycle (lights on at 6:00 am) for at least one week prior to testing. Food and water were provided ad libitum. Animals were weighed, tail marked, and randomly assigned to treatment groups before testing.
For each test, sixty minutes after the injection of vehicle or test compound, or 30 min after injection of the positive control, buspirone, mice were individually placed into test cages containing 1.5 in of Aspen bedding (PWI brand) and two rows of 10 marbles (20 marbles per test cage total). Filter tops were used to cover each test cage. Thirty minutes later, mice were removed from test cages and returned to their home cages. The number of fully visible marbles (less than ⅔ covered with bedding) were counted and subtracted from 20 to arrive at the number of marbles buried. Twelve mice were tested per group.
Testing included multiple tests with each test performed to evaluate buspirone hydrochloride (BUS; Sigma Aldrich) (positive control) and/or a compound of the present invention. Each compound was dissolved immediately prior to testing in 20% beta-cyclodextrin (compound of the present invention) or distilled water (BUS) and administered at one or more doses (such as 3, 10, and/or 30 mg/kg) via subcutaneous (SC) or intraperitoneal (IP) injection at the indicated pretreatment times (i.e., 30, 60, or 120 min pretreatment). Doses were measured in mg drug (salt form) per kg body weight. Data was analyzed using one-way ANOVA with post-hoc Dunnett's test.

| Emax [1] [%] | Ki [2] [nM] | SMILES | minimal effective dose [3] [mg/kg] |
| --- | --- | --- | --- |
| 63 to 99 | 6 to 700 | Cn1ccc(C(=O)NC23CC4CC(C2)CC(NC(=O)c2nccs2)(C4)C3)n1 [Example 19, Thiazole-2-carboxylic acid {3-[(1-methyl-1H-pyrazole-3-carbonyl)-amino]-adamantan-1-yl}-amide] |  |
| 63 to 99 | 6 to 700 | Cc1cccc(C(=O)NC23CC4CC(CC(NC(=O)c5cccc(-c6ncccn6)c5)(C4)C2)C3)n1 [Example 44, 6-Methyl-pyridine-2-carboxylic acid [3-(3-pyrimidin-2-yl-benzoylamino)-adamantan-1-yl]-amide] |  |
| 63 to 99 |  | Cc1cnc(C(=O)NC23CC4CC(CC(NC(=O)c5ccccn5)(C4)C2)C3)cn1 [Example 63, 5-Methyl-pyrazine-2-carboxylic acid {3-[(pyridine-2-carbonyl)-amino]-adamantan-1-yl}-amide] | 30 |
| 63 to 99 | 6 to 700 | Cc1nc2ccc(C(=O)NC34CC5CC(C3)CC(NC(=O)c3ccccn3)(C5)C4)cc2o1 [Example 65, 2-Methyl-benzoxazole-6-carboxylic acid {3-[(pyridine-2-carbonyl)-amino]-adamantan-1-yl}-amide] |  |
| 63 to 99 | 6 to 700 | O=C(NC12CC3CC(C1)CC(NC(=O)c1ccccn1)(C3)C2)c1ccc2c(c1)CCN2 [Example 67, 2,3-Dihydro-1H-indole-5-carboxylic acid {3-[(pyridine-2-carbonyl)-amino]-adamantan-1-yl}-amide] |  |
| 63 to 99 | 6 to 700 | Cn1ccc2cc(C(=O)NC34CC5CC(C3)CC(NC(=O)c3ccccn3)(C5)C4)ccc21 [Example 69, 1-Methyl-1H-indole-5-carboxylic acid {3-[(pyridine-2-carbonyl)-amino]-adamantan-1-yl}-amide] |  |
| 63 to 99 | 6 to 700 | Cc1cccc(C(=O)NC23CC4CC(CC(NC(=O)c5ccccn5)(C4)C2)C3)n1 [Example 72, 6-Methyl-pyridine-2-carboxylic acid {3-[(pyridine-2-carbonyl)-amino]-adamantan-1-yl}-amide] |  |
| 63 to 99 | 6 to 700 | O=C(NC12CC3CC(C1)CC(NC(=O)c1nccs1)(C3)C2)c1ccccn1 [Example 74, Pyridine-2-carboxylic acid {3-[(thiazole-2-carbonyl)-amino]-adamantan-1-yl}-amide] |  |
| 63 to 99 | 6 to 700 | O=C(NC12CC3CC(C1)CC(NC(=O)c1ccncn1)(C3)C2)c1cccc(F)c1 [Example 93, Pyrimidine-4-carboxylic acid [3-(3-fluoro-benzoylamino)-adamantan-1-yl]-amide] | 30 |
| 63 to 99 | 6 to 700 | O=C(NC12CC3CC(C1)CC(NC(=O)c1cnccn1)(C3)C2)c1cccc(F)c1 [Example 95, Pyrazine-2-carboxylic acid [3-(3-fluoro-benzoylamino)-adamantan-1-yl]-amide] |  |
| 63 to 99 | 6 to 700 | Cc1cncc(C(=O)NC23CC4CC(CC(NC(=O)c5cccc(F)c5)(C4)C2)C3)n1 [Example 96, 6-Methyl-pyrazine-2-carboxylic acid [3-(3-fluoro-benzoylamino)-adamantan-1-yl]-amide] |  |
| 70 to 99 | 6 to 700 | O=C(NC12CC3CC(C1)CC(NC(=O)c1cnccn1)(C3)C2)c1ccccn1 [Example 105, Pyrazine-2-carboxylic acid {3-[(pyridine-2-carbonyl)-amino]-adamantan-1-yl}-amide] | 30 |
| 70 to 99 | 6 to 700 | Cc1nccc(C(=O)NC23CC4CC(CC(NC(=O)c5ccccn5)(C4)C2)C3)n1 [Example 107, 2-Methyl-pyrimidine-4-carboxylic acid {3-[(pyridine-2-carbonyl)-amino]-adamantan-1-yl}-amide] | 10 |
| 70 to 99 | 6 to 700 | Cc1cccc(C(=O)NC23CC4CC(C2)CC(NC(=O)c2ccnc(C)n2)(C4)C3)n1 [Example 119, 2-Methyl-pyrimidine-4-carboxylic acid {3-[(6-methyl-pyridine-2-carbonyl)-amino]-adamantan-1-yl}-amide] | 10 |
| 70 to 99 | 6 to 700 | Cc1cccc(C(=O)NC23CC4CC(CC(NC(=O)c5cscn5)(C4)C2)C3)n1 [Example 120, 6-Methyl-pyridine-2-carboxylic acid {3-[(thiazole-4-carbonyl)-amino]-adamantan-1-yl}-amide] |  |
| 70 to 99 |  | Cc1cncc(C(=O)NC23CC4CC(C2)CC(NC(=O)c2cncc(C)n2)(C4)C3)n1 [Example 145, N,N′-(1,3-adamantylene)bis(6-methyl-pyrazine-2-carboxamide)] | 30 |
|  |  | Cc1cncc(C(=O)NC23CC4CC(CC(NC(=O)c5ccc(F)cn5)(C4)C2)C3)n1 [Example 179, 6-Methyl-pyrazine-2-carboxylic acid {3-[(5-fluoro-pyridine-2-carbonyl)-amino]-adamantan-1-yl}-amide] | 10 |
|  |  | Cc1nccc(C(=O)NC23CC4CC(CC(NC(=O)c5cccc(F)c5)(C4)C2)C3)n1 [Example 183, 2-Methyl-pyrimidine-4-carboxylic acid [3-(3-fluoro-benzoylamino)-adamantan-1-yl]-amide] | 10 |
| 63 to 99 |  | O=C(NC12CC3CC(C1)CC(NC(=O)c1cnccn1)(C3)C2)c1ccc(F)cn1 [Example 185, Pyrazine-2-carboxylic acid {3-[(5-fluoro-pyridine-2-carbonyl)-amino]-adamantan-1-yl}-amide] | 30 |

| SMILES | Emax [1] [%] | Ki [2] [nM] | minimal effective dose [3] [mg/kg] |
| --- | --- | --- | --- |
| Cn1nc2ccccc2c1C(=O)NC12CC3CC(CC(NC(=O)c4ccccn4)(C3)C1)C2 [Example 79, 2-Methyl-2H-indazole-3-carboxylic acid {3-[(pyridine-2-carbonyl)-amino]-adamantan-1-yl}-amide] |  | 6 to 700 |  |
